{"source": "patent US20230063321A1", "about": "“Methods for Treating Inflammatory Bowel Diseases with alpha4beta7 Integrin Antagonists” (Protagonist Therapeutics, Inc., priority 2020, published 2023)", "key": {"α4β7": {"biological_target": "T1, α4β7 (Mus musculus, UniProt P26011+Q00651)", "T1 construct": "mice were euthanized and whole blood/plasma and Peyer's patches were collected; from tissue; host or cells: whole blood and Peyer's patches of C57BL/6 mice", "T1 sequence (Q00651 41-1039)": "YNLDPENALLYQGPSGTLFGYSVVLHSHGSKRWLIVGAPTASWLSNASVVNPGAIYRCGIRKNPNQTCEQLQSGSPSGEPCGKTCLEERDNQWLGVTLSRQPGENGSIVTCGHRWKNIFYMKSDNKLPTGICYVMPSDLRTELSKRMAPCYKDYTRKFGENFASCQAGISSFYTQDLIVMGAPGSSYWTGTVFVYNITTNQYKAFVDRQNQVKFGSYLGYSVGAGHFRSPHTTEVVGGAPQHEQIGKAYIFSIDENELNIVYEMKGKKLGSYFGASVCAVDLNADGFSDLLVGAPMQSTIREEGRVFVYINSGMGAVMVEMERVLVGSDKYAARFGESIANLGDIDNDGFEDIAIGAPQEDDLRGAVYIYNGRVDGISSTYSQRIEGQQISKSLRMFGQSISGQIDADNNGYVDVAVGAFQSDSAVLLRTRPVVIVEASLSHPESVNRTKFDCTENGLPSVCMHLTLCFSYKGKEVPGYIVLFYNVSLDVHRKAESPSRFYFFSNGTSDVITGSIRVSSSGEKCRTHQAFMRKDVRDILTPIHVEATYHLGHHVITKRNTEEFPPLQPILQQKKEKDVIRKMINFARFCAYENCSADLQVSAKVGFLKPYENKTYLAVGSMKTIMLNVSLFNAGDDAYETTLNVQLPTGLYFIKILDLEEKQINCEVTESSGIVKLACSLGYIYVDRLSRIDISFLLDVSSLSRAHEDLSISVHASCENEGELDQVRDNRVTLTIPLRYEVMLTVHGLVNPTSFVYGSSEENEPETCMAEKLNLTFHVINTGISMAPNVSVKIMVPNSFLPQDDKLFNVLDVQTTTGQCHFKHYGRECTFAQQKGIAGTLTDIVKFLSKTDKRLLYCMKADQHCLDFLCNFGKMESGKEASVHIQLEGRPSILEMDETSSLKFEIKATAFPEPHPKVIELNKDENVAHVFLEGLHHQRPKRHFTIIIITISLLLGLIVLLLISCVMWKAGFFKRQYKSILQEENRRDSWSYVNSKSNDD", "T1 sequence (P26011 20-806)": "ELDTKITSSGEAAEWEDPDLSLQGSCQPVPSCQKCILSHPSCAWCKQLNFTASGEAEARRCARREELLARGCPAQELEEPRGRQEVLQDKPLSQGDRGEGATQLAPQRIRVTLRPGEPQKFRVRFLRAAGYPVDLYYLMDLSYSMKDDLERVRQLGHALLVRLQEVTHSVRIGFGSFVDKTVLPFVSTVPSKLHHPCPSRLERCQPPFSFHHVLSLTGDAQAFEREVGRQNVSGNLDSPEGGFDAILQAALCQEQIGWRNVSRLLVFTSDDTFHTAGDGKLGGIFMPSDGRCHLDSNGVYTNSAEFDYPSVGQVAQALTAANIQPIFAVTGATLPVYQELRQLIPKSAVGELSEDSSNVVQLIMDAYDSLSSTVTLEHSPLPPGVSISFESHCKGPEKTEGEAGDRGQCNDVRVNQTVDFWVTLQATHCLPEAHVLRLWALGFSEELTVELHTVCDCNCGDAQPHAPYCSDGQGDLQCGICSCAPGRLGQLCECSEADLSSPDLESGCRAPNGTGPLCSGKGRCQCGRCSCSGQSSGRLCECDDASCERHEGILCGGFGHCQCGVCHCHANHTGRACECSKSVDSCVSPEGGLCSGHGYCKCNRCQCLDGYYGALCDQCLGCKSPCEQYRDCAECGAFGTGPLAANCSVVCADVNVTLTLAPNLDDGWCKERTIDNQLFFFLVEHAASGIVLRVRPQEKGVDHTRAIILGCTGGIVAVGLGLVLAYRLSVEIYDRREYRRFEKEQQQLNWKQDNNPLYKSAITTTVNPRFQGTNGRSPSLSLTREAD", "test": "α4β7 receptor occupancy in whole blood and Peyer's patches after oral dosing", "assay_type": "in vivo, C57BL/6 mice", "procedure": "One hour following dosing, mice were euthanized and whole blood/plasma and Peyer's patches were collected. Peyer's patches were dispersed in 1 mL RPMI medium with 2% FBS without washing step. Whole blood and single cell suspension of Peyer's patches (100 uL out of 1 mL total) were submitted for flow cytometry to determine α4β7 receptor occupancy. % RO=(1−(% positive test sample/% positive median vehicle control))*100. Plasma and Peyer's patches dispersed in single cell suspension (500 uL of 1 mL total) were also analyzed for drug exposure."}, "[1]": {"test_system": "gut homing of ATRA+ T cells", "test": "Gut homing of cultured T cells transferred into recipient mice", "assay_type": "in vivo, C57BL/6 mice", "experimental": "Purified CD3+ cells were isolated from B6.SJL (CD45.1+) donor mice and cultured in the presence of anti-CD3/anti-CD28 beads and IL-2 to induce T cell activation and proliferation. In some culture conditions, Compound A and/or ATRA were added. To track the cells in vivo, ATRA− and ATRA+ cells were labeled with CMFDA and CTFR respectively. These labeled cells were then co-injected into C57BL/6 (CD45.2+) recipient mice.\nThe proportion of ATRA− and ATRA+ cells in spleen, Peyer's patches (PP), and ileal lamina propria (LP) of the recipient mice was measured by flow cytometry to evaluate cell homing.\nThirty-eight (38) C57BL/6 (CD45.2+) recipient mice were acclimated for 9 weeks before the start of the study (Day 0) and were 16 weeks old at cell transfer (Day 5). On Day 4, recipient mice were assigned to groups in a balanced manner to achieve similar average weight across the groups.\nOn Day 5, after removal of CD3/CD28 beads from cell cultures with a magnet, ATRA+ cells were labeled with CFTR, and ATRA− cells were labeled with CMFDA. Cells from each culture condition were then counted. For each group, ATRA− cells and cells from one of the ATRA+ culture conditions were mixed at a 1:1 ratio per Table 8 below and transferred into the recipient mice. Approximately 13 million of each type of cells (total of 26 million cells) were injected i.v. into each mouse.\nMice in Group 2 were dosed with anti-VLA-4 once, on Day 5 prior to cell transfer. Anti-VLA-4 (PS/2) antibodies were purchased from BioXCell and were kept at −80 C until needed. Antibodies were diluted to a final concentration of 1 mg/mL with sterile PBS and dosed at 10 mg/kg, intraperitoneally. No in vivo treatment was administered to other groups.\nTwenty (20) to 22 hours after cell transfer all mice were euthanized, and their blood, spleen, Peyer's patches and small intestines collected. Approximately 50 μL of plasma was isolated from the blood of each mouse and sored on dry ince until further analysis.\nCells from the following tissues were isolated from each mouse for flow cytometric analysis: • Spleen • Peyer's patches • Ileal lamina propria Isolated cells were counted and stained with anti-CD45.1 antibodies and live/dead stain. Cells were then acquired for flow cytometric analysis and the proportions of CD45.1+, ATRA+ and ATRA− cells in each tissue determined."}, "clinical": {"test": "clinical", "settings": "male, human, in vivo; for AUC(0-inf): AUCinf (ng · h/mL); for AUC(0-t): AUCt (ng · h/mL); for AUC: AUCtau (ng · h/mL); for Cmax: Cmax (ng/mL)", "procedure": "(§1) Dose escalation proceeded from 100 mg, 300 mg, 1000 mg, 1400 mg. Subjects in the 300 mg dose cohort received treatment in the fasted state on one occasion and following a high fat meal on a second occasion in a crossover fashion. The high fat meal consisted of two eggs fried in butter, two strips of bacon, two slices of toast with butter, four ounces of hash brown potatoes and 240 ml of whole milk. During Part 1, subjects refrained from food and drink except water for 10 hours before and for four hours after dosing with the exception of subjects in the 300 mg dose cohort during the fed treatment.\n(§2) Part 2 was a randomized, placebo-controlled, double-blind multiple ascending dose study in 50 male subjects divided equally into 5 cohorts. […] Doses evaluated in Part 2 included 100 mg, 300 mg and 1000 mg. During Part 2, two cohorts of subjects (100 mg and 300 mg) received food approximately 30 minutes prior to each dose and another two cohorts of subjects (300 mg and 100 mg) refrained from food for 10 hours before and for 1 hour after dosing.\n(§3) Study 1: The single and multiple ascending dose phase of the study consisted of sequential dose escalations in 10 subject per dose cohort. […] Dose solutions were formulated in 50 mM phosphate buffer pH 7.4 and were prepared weekly by a qualified pharmacist.\n(§4) Blood samples for pharmacokinetics were collected predose and for 48 hours postdose following single doses. In the multiple ascending dose phase, blood samples were obtained on Days 1-3 and 14-16; on Days 8 samples were obtained predose, 4, and 12 hours. On Day 10 of the MAD, subjects were required to collect all urine for the 0-6, 6-12, 12-18, and 18-24 hour intervals postdose and on Day 11 subjects were required to collect fecal samples.\n(§5) The drug and internal standard were extracted from the matrix by a protein precipitation procedure. The limit of quantitation was 0.2 ng/mL, 20 ng/mL, and 100 ng/mL in plasma, urine, and feces, respectively. […] Coefficient of determinations for the calibration curves were at least 0.99 for all matrices. The interassay accuracy (% bias) ranged from −2.2% to 1.0% for plasma, −3.8% to 9.0% for urine and −5.0 to 5.2% for feces. Interassay precision (% CV) ranged from 3.7% to 7.7% for plasma, 2.8% to 7.0% for urine, and 1.2% to 5.2% for feces.\n(§6) Pharmacokinetic parameters were estimated by noncompartmental methods using Phoenix WinNonlin (Certara, Princeton N.J.). Peak plasma concentration (Cmax) and time to peak plasma concentration (Tmax) were observed values. The elimination rate was estimated from the slope of the least-squares regression on the terminal log-linear phase. Area under the plasma concentration-time curve from time zero to the last quantifiable concentration (AUCt) was estimated by a linear trapezoidal method and was extrapolated to infinity (AUC∞) by dividing the last quantifiable concentration b the elimination rate."}, "[2]": {"test": "Study 1 pharmacokinetics in healthy male volunteers (liquid solution)", "settings": "for Fluctuation (%): Day 5, Mean ± SD", "procedure": "as §1, §2, §3, §4, §5, §6"}}, "note": "Where “and” joins values, the source holds several entries; their conditions need not be identical. Equal values may be shown once. Numbered stars: 1 amine (or outer) side, 2 acyl side, 3 side chain; on linkers, the order of the positions; unused ones are H or OH. Bridge positions count the residues as written; N and C are the ends. Square brackets hold non-standard residues; d marks the D form. Peptide text beside a SMILES is read from it. I, II: the chains in the order shown. ξ: configuration not given here. Phe(4-tBu) = CC(C)(C)c1ccc(C[C@H](N)C(=O)O)cc1; Diglycolyl = O=C(COCC(=O)[*:2])[*:1]; NMeR = CN[C@@H](CCCNC(=N)N)C(=O)O; β3hE = N[C@@H](CCC(=O)O)CC(=O)O; Thr(3ξ) = CC(O)[C@H](N)C(=O)O; X1 = O=C(c1ccccc1C[*:2])[*:1]; Pen = CC(C)(S)[C@H](N)C(=O)O"}
{"compound": "CC(C)C[C@@H]1NC(=O)[C@H](C(C)O)NC(=O)[C@H](CC(=O)O)NC(=O)[C@H](CO)NC(=O)[C@H](CCCNC(=N)N)N(C)C(=O)c2ccccc2CSC(C)(C)[C@@H](C(=O)N[C@@H](Cc2ccc(C(C)(C)C)cc2)C(=O)N[C@@H](CCC(=O)O)CC(=O)N[C@H](CCCCNC(=O)COCC(=O)NCCCC[C@@H](NC(=O)C[C@H](CCC(=O)O)NC(=O)[C@H](Cc2ccc(C(C)(C)C)cc2)NC(=O)[C@H]2NC(=O)[C@H](CC(C)C)NC(=O)[C@H](C(C)O)NC(=O)[C@H](CC(=O)O)NC(=O)[C@H](CO)NC(=O)[C@H](CCCNC(=N)N)N(C)C(=O)c3ccccc3CSC2(C)C)C(=O)O)C(=O)O)NC1=O", "note": "(stereo partly drawn) [Compound A, ((2-Benzyl)-(N-Me-R)-Ser-Asp-Thr-Leu-Pen-(Phe(4-tBlu))-(β-homo-Glu)-(D-Lys)-OH)2 (SEQ ID NO: 5) and linker-DIG diglycolic acid] (I: [NMeR]SD[Thr(3ξ)]L[Pen][Phe(4-tBu)][β3hE][dK]-OH / II: [NMeR]SD[Thr(3ξ)]L[Pen][Phe(4-tBu)][β3hE][dK]-OH; linker I:9-II:9 via Diglycolyl; linker I:N-I:6, II:N-II:6 via X1)", "values": [{"measurement": "receptor occupancy in whole blood and Peyer's patches, 30 mg/kg vs 3 mg/kg dose group", "setting": "α4β7; PO", "result": "significantly higher"}, {"measurement": "receptor occupancy in Peyer's patches compared to whole blood", "setting": "α4β7; both dose groups (3 and 30 mg/kg PO)", "result": "significantly higher"}, {"measurement": "receptor occupancy at 30 mg/kg", "setting": "α4β7; mouse, 30 mg/kg dose", "result": 100, "unit": "%"}, {"measurement": "ATRA+/10^3 live cells +/− SD in Ileal LP", "setting": "[1]; cells cultured with 100 nM", "result": "4.3 +/− 1.7 /10^3 live cells"}, {"measurement": "ATRA+/10^3 live cells +/− SD in Peyer's patches", "setting": "[1]; cells cultured with 100 nM", "result": "0.3 +/− 0.2 /10^3 live cells"}, {"measurement": "ATRA+/10^3 live cells +/− SD in spleen", "setting": "[1]; cells cultured with 100 nM", "result": "2.9 +/− 0.3 /10^3 live cells"}, {"measurement": "ATRA−/10^3 live cells +/− SD in Ileal LP", "setting": "[1]; cells cultured with 100 nM", "result": "0.3 +/− 0.1 /10^3 live cells"}, {"measurement": "ATRA−/10^3 live cells +/− SD in Peyer's patches", "setting": "[1]; cells cultured with 100 nM", "result": "0.2 +/− 0.2 /10^3 live cells"}, {"measurement": "ATRA−/10^3 live cells +/− SD in spleen", "setting": "[1]; cells cultured with 100 nM", "result": "9.0 +/− 1.1 /10^3 live cells"}, {"measurement": "CD45.1+ cells/10^3 live cells +/− SD, Ileal LP", "setting": "[1]; cells cultured with 100 nM", "result": "4.6 +/− 1.8 /10^3 live cells"}, {"measurement": "CD45.1+ cells/10^3 live cells +/− SD, Peyer's patches", "setting": "[1]; cells cultured with 100 nM", "result": "0.6 +/− 0.3 /10^3 live cells"}, {"measurement": "CD45.1+ cells/10^3 live cells +/− SD, Spleen", "setting": "[1]; cells cultured with 100 nM", "result": "12.1 +/− 1.4 /10^3 live cells"}, {"measurement": "Total number of cells isolated (×10^3), Ileal LP", "setting": "[1]; cells cultured with 100 nM", "result": "2005 +/− 1276 ×10^3"}, {"measurement": "Total number of cells isolated (×10^3), Peyer's patches", "setting": "[1]; cells cultured with 100 nM", "result": "673 +/− 295 ×10^3"}, {"measurement": "Total number of cells isolated (×10^3), Spleen", "setting": "[1]; cells cultured with 100 nM", "result": "100650 +/− 10215 ×10^3"}, {"measurement": "ATRA+/10^3 live cells +/− SD in Ileal LP", "setting": "[1]; cells cultured with 1000 nM", "result": "3.5 +/− 1.8 /10^3 live cells"}, {"measurement": "ATRA+/10^3 live cells +/− SD in Peyer's patches", "setting": "[1]; cells cultured with 1000 nM", "result": "0.3 +/− 0.1 /10^3 live cells"}, {"measurement": "ATRA+/10^3 live cells +/− SD in spleen", "setting": "[1]; cells cultured with 1000 nM", "result": "2.4 +/− 0.5 /10^3 live cells"}, {"measurement": "ATRA−/10^3 live cells +/− SD in Ileal LP", "setting": "[1]; cells cultured with 1000 nM", "result": "0.2 +/− 0.1 /10^3 live cells"}, {"measurement": "ATRA−/10^3 live cells +/− SD in Peyer's patches", "setting": "[1]; cells cultured with 1000 nM", "result": "0.2 +/− 0.1 /10^3 live cells"}, {"measurement": "ATRA−/10^3 live cells +/− SD in spleen", "setting": "[1]; cells cultured with 1000 nM", "result": "8.0 +/− 1.4 /10^3 live cells"}, {"measurement": "CD45.1+ cells/10^3 live cells +/− SD, Ileal LP", "setting": "[1]; cells cultured with 1000 nM", "result": "3.8 +/− 1.7 /10^3 live cells"}, {"measurement": "CD45.1+ cells/10^3 live cells +/− SD, Peyer's patches", "setting": "[1]; cells cultured with 1000 nM", "result": "0.6 +/− 0.1 /10^3 live cells"}, {"measurement": "CD45.1+ cells/10^3 live cells +/− SD, Spleen", "setting": "[1]; cells cultured with 1000 nM", "result": "10.6 +/− 1.9 /10^3 live cells"}, {"measurement": "Total number of cells isolated (×10^3), Ileal LP", "setting": "[1]; cells cultured with 1000 nM", "result": "1730 +/− 1023 ×10^3"}, {"measurement": "Total number of cells isolated (×10^3), Peyer's patches", "setting": "[1]; cells cultured with 1000 nM", "result": "775 +/− 360 ×10^3"}, {"measurement": "Total number of cells isolated (×10^3), Spleen", "setting": "[1]; cells cultured with 1000 nM", "result": "90617 +/− 13418 ×10^3"}, {"measurement": "AUC(0-inf)", "setting": "clinical; 100 mg", "result": 16.5, "unit": "ng·h/mL"}, {"measurement": "AUC(0-inf)", "setting": "clinical; 300 mg", "result": "57.6 ± 23.6", "unit": "ng·h/mL"}, {"measurement": "AUC(0-t)", "setting": "clinical; 450 mg", "result": "77.6 ± 37.1", "unit": "ng·h/mL"}, {"measurement": "AUC", "setting": "clinical; 450 mg", "result": "41.5 ± 10.7", "unit": "ng·h/mL"}, {"measurement": "Cmax", "setting": "clinical; 450 mg", "result": 9.96, "unit": "ng/mL"}, {"measurement": "AUC(0-inf)", "setting": "clinical; 900 mg", "result": "176 ± 98.5", "unit": "ng·h/mL"}, {"measurement": "AUC(0-t)", "setting": "clinical; 900 mg", "result": "159 ± 70.5", "unit": "ng·h/mL"}, {"measurement": "AUC", "setting": "clinical; 900 mg", "result": "159 ± 70.5", "unit": "ng·h/mL"}, {"measurement": "Cmax", "setting": "clinical; 900 mg", "result": 14.2, "unit": "ng/mL"}, {"measurement": "AUC(0-inf)", "setting": "clinical; 1000 mg", "result": "151 ± 31.7", "unit": "ng·h/mL"}, {"measurement": "AUC(0-t)", "setting": "clinical; 1000 mg", "result": "138 ± 33.7", "unit": "ng·h/mL"}, {"measurement": "Cmax", "setting": "clinical; 1000 mg", "result": "15.3 ± 4.11", "unit": "ng/mL"}, {"measurement": "AUC(0-inf)", "setting": "clinical; 1400 mg", "result": 260, "unit": "ng·h/mL"}, {"measurement": "AUC(0-t)", "setting": "clinical; 1400 mg", "result": "257 ± 173", "unit": "ng·h/mL"}, {"measurement": "Cmax", "setting": "clinical; 1400 mg", "result": 23.5, "unit": "ng/mL"}, {"measurement": "accumulation with once daily dosing (Cmax and AUCt, Day 14 vs Day 1)", "setting": "[2]; 300 mg and 1000 mg", "result": "≤ 30", "unit": "%"}, {"measurement": "Fluctuation (%)", "setting": "[2]; 450 mg Twice Daily", "result": "143% and 143 ± 42%"}, {"measurement": "Fluctuation (%)", "setting": "[2]; 450 mg Twice Daily, listed as COMPOUND A", "result": 143, "unit": "%"}, {"measurement": "Fluctuation (%)", "setting": "[2]; 900 mg Once Daily", "result": "245 ± 81", "unit": "%"}, {"measurement": "Fluctuation (%)", "setting": "[2]; 900 mg Once Daily, listed as COMPOUND A", "result": 245, "unit": "%"}]}
